Source: PubChem BioAssay AID192 (DTP/NCI, 2004)
Values joined by “and” are separate entries in the source; they are usually repeats but may differ in a detail not shown here. Equal entries are not always repeated. Toxic doses and inconclusive results are not listed. Rule for the calls: active = survival T/C of 150% or more; inactive = T/C below 125% in these data. Square brackets hold non-standard residues; d marks the D form. Peptide text beside a SMILES is read from it. * marks the point of attachment. ξ: configuration not given here. Cbz = O=C(OCc1ccccc1)*; ξK = NCCCCC(N)C(=O)O

Tested on: BDF1 mice, B16 melanoma ip, median survival T/C
Assay: NCI In Vivo Anticancer Drug Screen. Data for tumor model B16 Melanoma (intraperitoneal) in B6D2F1 (BDF1) mice
Conditions: endpoint: median survival time, higher = longer survival
Summary of the method: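 Transplantable tumor model; survival or tumor size measured; reported as T/C, treated over vehicle control.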

[1] = dose: 100.0 mg/kg/injection, schedule: Q01DX009 (ip), vehicle: saline
[2] = dose: 200.0 mg/kg/injection, schedule: Q01DX009 (ip), vehicle: saline
[3] = dose: 400.0 mg/kg/injection, schedule: Q01DX009 (ip), vehicle: saline
[4] = dose: 100.0 mg/kg/injection, schedule: Q01DX009 (ip), vehicle: saline with Tween-80
[5] = dose: 200.0 mg/kg/injection, schedule: Q01DX009 (ip), vehicle: saline with Tween-80
[6] = dose: 25.0 mg/kg/injection, schedule: Q01DX009 (ip), vehicle: Klucel (hydroxypropylcellulose) (HPC)
[7] = dose: 50.0 mg/kg/injection, schedule: Q01DX009 (ip), vehicle: Klucel (hydroxypropylcellulose) (HPC)
[8] = dose: 200.0 mg/kg/injection, schedule: Q01DX009 (ip), vehicle: Klucel (hydroxypropylcellulose) (HPC)
[9] = dose: 400.0 mg/kg/injection, schedule: Q01DX009 (ip), vehicle: Klucel (hydroxypropylcellulose) (HPC)
[10] = dose: 6.25 mg/kg/injection, schedule: Q01DX009 (ip), vehicle: saline with Tween-80
[11] = dose: 100.0 mg/kg/injection, schedule: Q01DX009 (ip), vehicle: Klucel (hydroxypropylcellulose) (HPC)
[12] = dose: 12.5 mg/kg/injection, schedule: Q01DX009 (ip), vehicle: saline
[13] = dose: 25.0 mg/kg/injection, schedule: Q01DX009 (ip), vehicle: saline
[14] = dose: 50.0 mg/kg/injection, schedule: Q01DX009 (ip), vehicle: saline
[15] = dose: 6.25 mg/kg/injection, schedule: Q01DX009 (ip), vehicle: saline
[16] = dose: 12.5 mg/kg/injection, schedule: Q01DX009 (ip), vehicle: saline with Tween-80
[17] = dose: 25.0 mg/kg/injection, schedule: Q01DX009 (ip), vehicle: saline with Tween-80
[18] = dose: 50.0 mg/kg/injection, schedule: Q01DX009 (ip), vehicle: saline with Tween-80

Measured: T/C

CCOC(=O)N(C)C
inactive: [1] 93 % of control | [2] 98 % of control | [3] 94 % of control

N#Cc1ccc(Br)cc1[N+](=O)[O-]
inactive: dose: 0.39 mg/kg/injection, schedule: Q01DX009 (ip), vehicle: Klucel (hydroxypropylcellulose) (HPC) 93 % of control | dose: 0.78 mg/kg/injection, schedule: Q01DX009 (ip), vehicle: Klucel (hydroxypropylcellulose) (HPC) 93 % of control | dose: 1.56 mg/kg/injection, schedule: Q01DX009 (ip), vehicle: Klucel (hydroxypropylcellulose) (HPC) 106 % of control

O=C(NN=C1CCCCC1)c1ccccc1
inactive: dose: 18.75 mg/kg/injection, schedule: Q01DX009 (ip), vehicle: saline with Tween-80 97 % of control | dose: 37.5 mg/kg/injection, schedule: Q01DX009 (ip), vehicle: saline with Tween-80 100 % of control | dose: 75.0 mg/kg/injection, schedule: Q01DX009 (ip), vehicle: saline with Tween-80 105 % of control and 107 % of control

CC(C)c1ccc(C(=O)CCCCl)cc1
inactive: [4] 93 % of control | [5] 86 % of control

O=C1OC(COCC#Cc2ccccc2)CN1c1ccccc1 (stereo not drawn)
inactive: [6] 97 % of control | [7] 93 % of control | dose: 100.0 mg/kg/injection, schedule: Q04DX003 (ip), vehicle: saline with Tween-80 102 % of control | [8] 91 % of control | dose: 200.0 mg/kg/injection, schedule: Q04DX003 (ip), vehicle: saline with Tween-80 105 % of control | [9] 91 % of control | dose: 400.0 mg/kg/injection, schedule: Q04DX003 (ip), vehicle: saline with Tween-80 108 % of control

C[P+](C)(Cc1ccc([N+](=O)[O-])cc1)c1ccccc1
inactive: [6] 98 % of control | [7] 100 % of control

O=c1cc[nH]c(=O)o1
inactive: dose: 6.25 mg/kg/injection, schedule: Q01DX009 (ip), vehicle: water 104 % of control | dose: 12.5 mg/kg/injection, schedule: Q01DX009 (ip), vehicle: water 111 % of control | dose: 25.0 mg/kg/injection, schedule: Q01DX009 (ip), vehicle: water 108 % of control

NCC(=O)NC(CCCCNC(=O)OCc1ccccc1)C(=O)O (stereo not drawn) (H-Gly-[ξK](Cbz)-OH)
inactive: dose: 3.12 mg/kg/injection, schedule: Q01DX009 (ip), vehicle: saline with Tween-80 97 % of control | [10] 101 % of control

CC(Cc1ccccc1)NC(=O)/C=C/C(=O)O (stereo not drawn)
inactive: [11] 95 % of control | [8] 91 % of control | [9] 89 % of control

CC12CC3OC(=O)C1COC14OC5(C2C1=O)C(O)(CCC1C4CC(O)C2(O)CC=CC(=O)C12C)C(=O)OC35C (stereo not drawn)
inactive: dose: 3.0 mg/kg/injection, schedule: Q01DX009 (ip), vehicle: Klucel (hydroxypropylcellulose) (HPC) 120 % of control | dose: 6.0 mg/kg/injection, schedule: Q01DX009 (ip), vehicle: Klucel (hydroxypropylcellulose) (HPC) 98 % of control and 124 % of control | dose: 12.0 mg/kg/injection, schedule: Q01DX009 (ip), vehicle: Klucel (hydroxypropylcellulose) (HPC) 110 % of control and 118 % of control | dose: 24.0 mg/kg/injection, schedule: Q01DX009 (ip), vehicle: Klucel (hydroxypropylcellulose) (HPC) 113 % of control and 120 % of control | dose: 48.0 mg/kg/injection, schedule: Q01DX009 (ip), vehicle: Klucel (hydroxypropylcellulose) (HPC) 120 % of control

CCN(C)CCN(C)CC
inactive: [1] 95 % of control | [2] 109 % of control

O=[N+]([O-])c1ccc(N2CCC(CCCC3CCN(c4ccc([N+](=O)[O-])cc4[N+](=O)[O-])CC3)CC2)c([N+](=O)[O-])c1
inactive: [6] 106 % of control | [11] 112 % of control

Cc1ccc(Cl)cc1NC(=O)c1ccccc1C(=O)O
inactive: [11] 93 % of control | [8] 93 % of control | [9] 103 % of control

CC(C)NNC(=O)c1ccncc1
inactive: [12] 107 % of control | [13] 94 % of control and 101 % of control | [14] 95 % of control and 101 % of control | [1] 110 % of control | [2] 92 % of control and 104 % of control

Nc1n[nH]c(=O)[nH]1
inactive: [6] 107 % of control | [7] 98 % of control | [11] 109 % of control | [8] 107 % of control

C[CH2][Sn]([CH2]C)([O]S(=O)(=O)CC12CCC(CC1=O)C2(C)C)[O]S(=O)(=O)CC12CCC(CC1=O)C2(C)C
inactive: dose: 1.56 mg/kg/injection, schedule: Q01DX009 (ip), vehicle: saline 100 % of control | dose: 3.12 mg/kg/injection, schedule: Q01DX009 (ip), vehicle: saline 108 % of control | [15] 115 % of control | [12] 100 % of control | [13] 96 % of control

O=C1CCNC(=O)N1OS(=O)(=O)c1ccccc1
inactive: dose: 6.25 mg/kg/injection, schedule: Q01DX009 (ip), vehicle: Klucel (hydroxypropylcellulose) (HPC) 106 % of control | dose: 12.5 mg/kg/injection, schedule: Q01DX009 (ip), vehicle: Klucel (hydroxypropylcellulose) (HPC) 100 % of control | [6] 98 % of control

CCCCCCCCCCCCCCCCCC(=O)OCC(=O)OCC(=O)[C@]1(O)Cc2c(O)c3c(c(O)c2[C@@H](OC2CC(N)C(O)C(C)O2)C1)C(=O)c1c(OC)cccc1C3=O (stereo partly drawn)
active: dose: 3.75 mg/kg/injection, schedule: Q01DX001 (ip), vehicle: water 236 % of control | dose: 7.5 mg/kg/injection, schedule: Q01DX001 (ip), vehicle: water 287 % of control and 289 % of control | dose: 15.0 mg/kg/injection, schedule: Q01DX001 (ip), vehicle: water 289 % of control | dose: 30.0 mg/kg/injection, schedule: Q01DX001 (ip), vehicle: water 154 % of control and 289 % of control (2×)

Clc1ccc2c(c1)/C(=C/c1ccccc1Cl)c1cc(Cl)cc(Cl)c1-2
inactive: [10] 90 % of control | [16] 88 % of control

CC[N](CC)[Ge]([CH2]C)[CH2]C.CC[N](CC)[Ge]([CH2]C)[CH2]C
inactive: [15] 100 % of control | [12] 99 % of control | [13] 88 % of control | [14] 86 % of control

CCNCCNc1ccc(NCCNCC)c2c1C(=O)c1ccccc1C2=O
active: dose: 8.0 mg/kg/injection, schedule: Q01DX009 (ip), vehicle: acid diluted with saline 157 % of control | dose: 16.0 mg/kg/injection, schedule: Q01DX009 (ip), vehicle: acid diluted with saline 158 % of control

NC(=O)C(O)C(O)C(O)C(O)C(N)=O (stereo not drawn)
inactive: [1] 106 % of control | [2] 100 % of control

c1ccc2c(CNC3CCCCC3)c[nH]c2c1
inactive: [6] 89 % of control | [7] 97 % of control | dose: 100.0 mg/kg/injection, schedule: Q04DX003 (ip), vehicle: Klucel (hydroxypropylcellulose) (HPC) 92 % of control

CC(C)=CCNc1ncnc2c1ncn2C1OC(CO)C(O)C1O (stereo not drawn)
inactive: [10] 102 % of control | [15] 101 % of control | [16] 103 % of control | [12] 96 % of control | [17] 87 % of control and 107 % of control | [13] 103 % of control | [18] 87 % of control and 98 % of control | [14] 93 % of control | [4] 97 % of control | [1] 115 % of control

CCCCCCCCCCCCCCCCCCOCC(CO)OC (stereo not drawn)
inactive: [17] 102 % of control | [18] 100 % of control | [4] 98 % of control | [5] 92 % of control

Cc1c2cccc(Sc3ccccc3)c2c2c3c(cccc13)[S+](c1ccccc1)C2 (stereo not drawn)
inactive: dose: 0.78 mg/kg/injection, schedule: Q01DX009 (ip), vehicle: saline with Tween-80 104 % of control | dose: 1.56 mg/kg/injection, schedule: Q01DX009 (ip), vehicle: saline with Tween-80 105 % of control | dose: 3.13 mg/kg/injection, schedule: Q01DX009 (ip), vehicle: saline with Tween-80 102 % of control | [10] 91 % of control and 100 % of control

O=C(NC(Cc1ccccc1)C(=O)NC(Cc1ccc(O)cc1)C(=O)O)OCc1ccccc1 (stereo not drawn) (Cbz-Phe-Tyr-OH; configuration not given here)
inactive: [18] 105 % of control | [4] 86 % of control

COCCCN1CCN(c2ccccc2OC)CC1
inactive: [13] 101 % of control | [14] 92 % of control

O=C(O)CCC1CCC(=O)OC1=O (stereo not drawn)
inactive: [1] 112 % of control | [2] 113 % of control | [3] 113 % of control

CC[C@@H](O)C[C@H]1CCC[C@@]2(C[C@@H]3OC(=O)/C=C/[C@@](C)(O)[C@@H](O)[C@H](C)[C@@H](O)[C@H](OC4CCC(N(C)C)C(C)O4)[C@@H](O)[C@](C)(O)CCCCC/C=C/[C@@H]4CC(C)(C)O[C@@]4(O)C[C@H](O2)[C@H]3C)O1 (stereo partly drawn)
inactive: dose: 4.0 micrograms/kg/injection, schedule: Q01DX009 (ip), vehicle: saline 101 % of control | dose: 8.0 micrograms/kg/injection, schedule: Q01DX009 (ip), vehicle: saline 97 % of control | dose: 16.0 micrograms/kg/injection, schedule: Q01DX009 (ip), vehicle: saline 109 % of control | dose: 32.0 micrograms/kg/injection, schedule: Q01DX009 (ip), vehicle: saline 93 % of control
